Measured values from patent US20260227408A1, “Compositions and Methods for Modulation of Immune Responses” (Flagship Pioneering Innovations VI, LLC, priority 2022, published 2026).

B1: SEQ ID NO: 35480: target protein of the Sequence Listing, applied as peptide to PBMCs (peptide, listed as Homo sapiens)
chain: LRPRSAAFAPRYTRLVMRRSSRSFRLQCTGFPSSSAQSISAHLSNSMPSSLLTISRCPGMFAVRCPL
B2: SEQ ID NO: 33169: target protein of the Sequence Listing, applied as peptide to PBMCs (peptide, listed as Homo sapiens)
chain: MCHKGWHGPGVPHHVAFTPCKARLRPATQCQAHSSPRRKMVQAGSIPLAAASGRLCLTHAGWWRGAS

Experiments:
[1] = test system: Peripheral Blood Mononuclear Cells; test: PBMC cytokine release by CBA, Activation format (peptide alone); assay type: cell-based, human; set-up: key: X = a hit with significant activation or inhibition of relevant cytokine release; conditions: peptide applied to PBMCs alone; supernatant CBA after 24 hours
Description: (§1) CBA (Cytometry) experiment looking at pro-inflammatory cytokines produced by PBMCs treated with secreted peptides.
(§2) Peripheral Blood Mononuclear Cells were seeded+/−the T-cell activator […] and +/−peptides for 24-48 hours. Cytokines were measured from the supernatant after incubation by CBA Cytometer.
(§3) Thawing PBMCs: PBMCs were thawed by pre-warming TexMACS media (Miltenyi Biotech) in 20 ml aliquots-1-50 ml conical per donor. After the media was warmed to 37° C., cells were removed from liquid nitrogen and brought to the tissue culture hood. For each donor, 1 ml of media from the warmed aliquot was added to the frozen vial and mixed up and down. The media plus thawed cells were then added back to the 50 ml conical. This was repeated until all the cells were thawed and added to the 50 ml tube. Continue with other donors if used. Spin cells for 5 min at 400×g. Supernatant was aspirated and cells resuspended at ~10*10^6 cells/ml (see vial for cell number).
(§4) PBMC Plating: Frozen PBMCs from normal, healthy, human volunteers (StemCell Technologies) were thawed and plated at 250,000 cells/well. After PBMCs were thawed and resuspended at […], cells were then counted (Countess III, Thermo Scientific) and adjusted based on counts to […]. Take the number of PBMCs determined by number of wells for the experiment, for example, 10 wells would need 2.5*10^6 cells total or 0.250 ml. The cells needed for the experiment are then transferred to another conical tube. Warmed TexMACS media is added so that the final concentration is 250,000 cells/190 ul media, for example, 10 wells would need 1.9 ml (190 ul×10 wells) of media total minus 0.250 ml of cells (1.9 ml-0.250 ml) or 1.65 ml of media added to the 0.250 ml of cells. Add 190 ul of cells plus media to the 96 well U-bottom plate. Place in incubator until dilutions are made and ready.
(§5) Peptide Dilutions: Ideally, all peptides should be at a starting concentration of at least 10 mM, especially for those in DMSO (ATCC) to reach a final concentration of 1 uM (H2O) or 0.5 uM (DMSO). Dilutions of all test articles should be made at 20× the final concentration, for example, a final concentration of 1 uM peptide would need to be made at 20 uM.
(§6) Reagent Dilution: Dilutions are made in TexMACS media, enough for 10 ul/well in triplicate (30 ul of a 20×). Activator—CD3/CD28 (TransAct; Miltenyi Biotech) or cytokine will be at 21× and added after the 45-minute incubation with peptides. Be sure to include relevant controls—Positive: TransAct+Cells, Negative: Vehicle+Cells. Dilutions should also be made in a ultra-low binding plate (Corning).
(§7) Assay Procedure: Peptide Treatment: Start assay by thawing the cells and plating in a 96 well, U-bottom tissue culture plate (Corning) as described above. Cell plates are placed in a tissue culture incubator (5% CO2, 37° C.). While cells are in the incubator, start making dilutions (optimally 1 hr or less) as described above. Cell plates are removed from the incubator and 10 ul of the 20× dilutions are added to the relevant wells. After the addition of inhibitors, cell plates are placed in the tissue culture incubator for 45 minutes. The plates are removed from the incubator and 10 ul of […] TransAct is added to the relevant wells*. Plates are then returned to the incubator and incubated for 24 hours. After 24 hours, plates are spun for 5 minutes at 400×g. * Activation: This assay can be run in two different formats—Activation and Inhibition. The procedure is the same except no TransAct is needed in the peptide wells for Activation. TransAct is only needed in the control wells. The purpose of this procedure is to determine the possible response from peptides alone.
(§8) Cytometric BeadArray (CBA): After the spin, supernatants (~150 ul) are transferred to a new, ultra-low binding U-bottom plate. Supernatants are then frozen at −20° C. until thawed for CBA (BD) to determine levels of human IL-2, TNFa, IL-1b, IP-10, IL-10, and IFNg. […]

[2] = test system: CD3/CD28 (TransAct) activated PBMCs; test: PBMC cytokine release by CBA, Inhibition format (peptide with CD3/CD28 TransAct activator); assay type: cell-based, human; set-up: key to Inhibition by Analyte IL-1b / Inhibition by Analyte IL-2 / Inhibition by Analyte TNF / Inhibition by Analyte IP-10 / Inhibition by Analyte IL-10: X = a hit with significant activation or inhibition of relevant cytokine release
Description: as §1, §2, §3, §4, §5, §6, §7, §8

[3] = peptide applied with anti-CD3/CD28 T-cell activator, supernatant CBA after 24 hours

Row | Molecule | Activation by Analyte IP-10 [1] | Inhibition by Analyte IL-1b [2, 3] | Inhibition by Analyte IL-2 [2, 3] | Inhibition by Analyte TNF [2, 3] | further results
1 | SEQ ID NO: 33678: target protein of the Sequence Listing, applied as peptide to PBMCs (METSCSLWVSSELFCRSVKVFFCLLALHLSALPHSSWTQDKNLGLAGMVELK; listed as Homo sapiens) | X |  |  |  | 
2 | SEQ ID NO: 33885: Target Protein validated as an anti-inflammatory immune modulator (VAEPRRGHLKAALASLGGAAPAAATNGSPPLFK; listed as Homo sapiens) |  | X | X | X | release of TNF-alpha from activated PBMCs ([2]; CD3/CD28 (TransAct) activated PBMCs, FIG. 1): significantly blocks; release of IL-1b from activated PBMCs ([2]; CD3/CD28 (TransAct) activated PBMCs, FIG. 2): does not block; Inhibition by Analyte IP-10 [2, 3]: X
3 | SEQ ID NO: 33934: target protein of the Sequence Listing, applied as peptide to PBMCs (MSFDHPEKNGPWPADPINLPSHG; listed as Homo sapiens) |  |  | X | X | 
4 | SEQ ID NO: 34837: target protein of the Sequence Listing, applied as peptide to PBMCs (MRSPLSASALLLWSSSVARAFSSPSLLMAVPSPTCSRY; listed as Homo sapiens) |  | X |  | X | Inhibition by Analyte IL-10 [2, 3]: X; Inhibition by Analyte IP-10 [2, 3]: X
5 | SEQ ID NO: 35373: target protein of the Sequence Listing, applied as peptide to PBMCs (LDFIRAFLLLLVASVPGKIGSQNLTAQRPPVATSFLQMESSEPTVRK; listed as Homo sapiens) |  | X | X | X | Inhibition by Analyte IP-10 [2, 3]: X
6 | SEQ ID NO: 37043: target protein of the Sequence Listing, applied as peptide to PBMCs (MSEVATLLFSQTALASLESVHPAGHKLWMRNLRQVTSP; listed as Homo sapiens) |  |  | X | X | 
7 | SEQ ID NO: 37192: target protein of the Sequence Listing, applied as peptide to PBMCs (MVSHRKDWRRVNLRFSSCLLLSICLDDKPSADELCFWTDHGRSQLTCPSLGVSQGHARSS; listed as Homo sapiens) | X |  |  |  | 
8 | SEQ ID NO: 37363: target protein of the Sequence Listing, applied as peptide to PBMCs (MGGKSWLFFYSLVFCALLPLPRREDPFKLF; listed as Homo sapiens) |  | X |  |  | 
9 | SEQ ID NO: 37375: target protein of the Sequence Listing, applied as peptide to PBMCs (MARPLSLAAAGAPDLLFTALCSLLIEAQPLRPFDLQVLGDPQPRARTP; listed as Homo sapiens) |  |  |  |  | Activation by Analyte IL-2 [1]: X
10 | SEQ ID NO: 37394: target protein of the Sequence Listing, applied as peptide to PBMCs (MESRTLLLLFSGAVALIQTWADYNYNQGRNDLIFTLQLWKRQ; listed as Homo sapiens) |  | X |  |  | 
11 | SEQ ID NO: 38042: target protein of the Sequence Listing, applied as peptide to PBMCs (MWWKTPCWWTPSTTATSSSAEARSCGRLLKSMAG; listed as Homo sapiens) | X |  |  |  | 
12 | B1 | X |  |  |  | 
13 | B2 | X |  |  |  | 
